In BindingDB's records for doi:10.7270/Q20000JS (Johns Hopkins Ion Channel Center, 2010):

Biological target: Potassium voltage-gated channel subfamily KQT member 2 (Rattus norvegicus, UniProt O88943)
Assay: KCNQ2 channel potentiators, dose response, mechanism study for KCNQ2 potentiator project, cell-based, automated electrophysiology (AID 2603)

Chain of Potassium voltage-gated channel subfamily KQT member 2 (O88943 whole entry): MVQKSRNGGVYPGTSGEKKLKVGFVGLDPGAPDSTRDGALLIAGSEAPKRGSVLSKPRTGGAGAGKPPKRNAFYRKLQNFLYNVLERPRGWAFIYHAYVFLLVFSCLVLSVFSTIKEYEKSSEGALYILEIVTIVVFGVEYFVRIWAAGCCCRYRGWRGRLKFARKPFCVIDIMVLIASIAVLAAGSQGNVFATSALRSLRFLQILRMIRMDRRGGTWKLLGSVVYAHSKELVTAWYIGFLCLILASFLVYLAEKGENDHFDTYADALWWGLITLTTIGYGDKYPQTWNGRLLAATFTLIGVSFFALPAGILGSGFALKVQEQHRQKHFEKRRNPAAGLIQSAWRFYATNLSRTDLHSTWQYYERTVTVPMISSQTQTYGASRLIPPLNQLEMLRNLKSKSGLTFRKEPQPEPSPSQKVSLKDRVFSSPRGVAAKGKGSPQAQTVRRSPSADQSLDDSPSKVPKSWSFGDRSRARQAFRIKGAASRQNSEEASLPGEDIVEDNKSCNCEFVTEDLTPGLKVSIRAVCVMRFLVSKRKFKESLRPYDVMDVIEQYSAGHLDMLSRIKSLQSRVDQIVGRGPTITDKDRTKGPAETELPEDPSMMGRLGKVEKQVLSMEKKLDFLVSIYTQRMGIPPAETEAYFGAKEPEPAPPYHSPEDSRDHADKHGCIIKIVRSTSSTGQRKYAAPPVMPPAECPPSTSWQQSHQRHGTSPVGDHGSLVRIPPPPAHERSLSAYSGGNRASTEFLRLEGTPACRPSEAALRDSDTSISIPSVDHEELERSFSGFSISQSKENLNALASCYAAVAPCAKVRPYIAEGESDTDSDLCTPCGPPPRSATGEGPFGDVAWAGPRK

EC50 [µM]	Structure (SMILES)
3.7	CC(C)N1C(=O)C(=NNc2ccc(Cl)c(C(=O)O)c2)c2ccccc21 [MLS000773916]
537	CC1=NC(=O)NC(c2cccc(O)c2)C1C(=O)OC1CCCCCCC1 (configuration not stated) [SMR000111748]
